Data on five compounds can be found in US20230079389A1, “COMPOSITION FOR USE IN PREVENTION OR TREATMENT OF OESOPHAGEAL DISEASES LINKED TO EPITHELIAL BARRIER DEFECTS” (THELIAL B.V., priority 2020, published 2023).

For one series, the system named is Par6. Briefly: theLiTE assay: distribution of GFP-tagged Par6 in live follicular epithelia. The following applies: for Par6 modulation (distribution of Par6 protein): live follicular epithelia of Drosophila egg chamber, Par6-GFP. The text has this: The present inventors used a unique approach in order to identify compounds which reinforce the TJ system via the control of TJ initiation. Par6 was selected as the biological target; it acts as a regulator of tight junction initiation. Par6 has a polar distribution, with a defined zone of high abundance at one end of the cell. This Par6 distribution is key to the biological function, not just the absolute Par6 protein level.
Standard tools for RNA and protein level measurement are not adequate to discover compounds which target Par6 and the present inventors devised and implemented an assay where the distribution of Par6 in living tissues can be monitored: Thelial Live Targeted Epithelia (theLiTE™; U.S. Pat. No. 9,416,391).
The technology of theLITE™ allows monitoring the distribution of Par6—an intracellular protein that controls tight junction assembly. The assay was performed in live follicular epithelia of the egg chamber of the fruit fly Drosophila. Par6 was tagged with a green fluorescence protein (GFP) and its distribution within the cell was monitored by the GFP signal. […] This protein distribution is key to the biological function, not just the absolute protein level.
In theLiTE, the present inventors tested whether compounds modulate the distribution of Par6 protein in live follicular epithelia. In theLiTE more than 20 live egg chambers were exposed to test each compound and monitored for Par6 distribution after a set incubation time; any positive compounds were tested in three separate runs of experiments and over a broad range of concentrations. The full method is disclosed in the US patent document. […] The positive control in FIG. 2, indicated with a “+” sign, is Antimycin A, at a concentration of 40 micromolar. The negative control, indicated with a “−” sign is the solvent medium (Insect cell culture medium plus 10% dimethyl sulfoxide).

In series [1] the test system is subjects suffering from GERD. Description: 6-weeks treatment of GERD subjects, synergy between active compounds. The following applies: for subjects reporting reduction in severity of GERD, as well as reduced usage of PPIs: 500 mg twice daily oral, 14 patients per group; for effect on GERD (in words): twice daily oral. It counts as in vivo, human. As to the method:
In a 6-weeks treatment, 50 subjects suffering from GERD receive a twice daily oral dose (1 hour before the morning and the evening meal) with either • Quercetin (500 mg); • Myricetin (500 mg); • Quercetin (500 mg) and Myricetin (500 mg); • Quercetin (500 mg) and Genistein (300 mg); • Myricetin (500 mg) and Berberine (750 mg).

Series [2] relates to patients with non-erosive Gastro esophageal Reflux Disease (GERD). The following applies: cited from earlier work.

Read-outs that look alike come from different tables or passages of the source.

Regarding `O=c1c(O)c(-c2cc(O)c(O)c(O)c2)oc2cc(O)cc(O)c12` [Myricetin, 3,5,7-Trihydroxy-2-(3,4,5-trihydroxyphenyl)-4H-1-benzopyran-4-one], in the series on Par6, the “Par6 modulation (distribution of Par6 protein)” value (from here on “Par6 modulation”) was “potent Par6 modulation”. The toxicity result in the series on Par6 (screen of over 2000 compounds) was “low toxicity”. In series [1], the “subjects reporting reduction in severity of GERD, as well as reduced usage of PPIs” value is 10 subjects report reduction in severity of GERD, and the “effect on GERD (in words)” value is listed as “reduction of GERD severity”.

Turning to `O=c1c(-c2ccc(O)cc2)coc2cc(O)cc(O)c12` [Genistein, 5,7-dihydro-3-(4-hydroxyphenyl)chromen-4-one], the “Par6 modulation” value with Par6 was “do not modulate Par6”.

On to Antimycin A [reference compound], for which the “Par6 modulation” value with Par6 is given as “most potent compound in the test”. Further, the toxicity result in the series on Par6 (screen of over 2000 compounds) is “toxic”.

Regarding `COc1ccc2cc3[n+](cc2c1OC)CCc1cc2c(cc1-3)OCO2` [Berberine, 5,6-dihydro-9,10-dimehtoxybenzo[g]-1,3-benzodioxolo[5,6-a]quinolizinium], the “Par6 modulation” value in the series on Par6 was “do not modulate Par6”.

In the case of `O=c1c(O)c(-c2ccc(O)c(O)c2)oc2cc(O)cc(O)c12` [Quercetin, 2-(3,4-dihydroxyphenyl)-3,5,7-trihydroxychromen-4-one], in the series with Par6, the toxicity entry is listed as “low toxicity” and the “Par6 modulation” value is listed as “potent Par6 modulation”. Moreover, the “esophageal epithelial barrier function, resistance to injury upon contact with hydrochloric acid” value in series [2] (500 mg orally twice daily (tablet) for 6 weeks, endoscopic biopsies before and after) is given as “increases esophageal epithelial barrier function”. Besides, in series [2] (14 GERD sufferers, twice 500 mg daily, 6-week period), the heartburn symptom improvement entry is reported as “no report of consistent effects”. In series [1], the “subjects reporting reduction in severity of GERD, as well as reduced usage of PPIs” value was 12 subjects report reduction in severity of GERD, and the “effect on GERD (in words)” value was “reduction of GERD severity”.
